The source of these data is patent US10145848B2, “Small-molecule hydrophobic tagging of fusion proteins and induced degradation of same” (YALE UNIVERSITY, priority 2010, dated 2018).

Entries after “also recorded” stand apart in the source; their conditions may differ.

The subject of data set [1] is transmembrane HA-HaloTag fusion proteins (Ror2, CD3E, CD9, GPR40, Frizzled-4). Put plainly: Immunoblotting of transmembrane HA-HaloTag fusion proteins in HEK 293T cells. The class given is cell-based. The conditions noted are these: 1 μM, 24 hours. (In western blotting, separated proteins are transferred to a membrane and probed.)
Data set [2] is described as follows: Maximum tolerated dose experiment / weight gain in nude mice. It is filed as in vivo. The source says: Nude mice were daily IP injected with indicated concentrations of HyT13 and were monitored for weight gain during the 14-day experiment. Shown is the percent weight gained during the 14-day period for each treatment group ±SEM. Each treatment group consisted of 7 mice.
To examine whether the HaloTag:HyT13 based system could be used in mouse models to relieve the H-RasG12V-driven tumor burden, we first evaluated the pharmacokinetics of HyT13. We performed a maximum tolerated dose experiment with HyT13 in nude mice at doses up to 100 mg/kg over a 14-day treatment regimen. […] Next, we sought to determine the serum bioavailability of HyT13 following injections. HyT13 was administered at 25 mg/kg by intraperitoneal (IP) injection into Swiss Webster mice and the serum was collected at 1 and 24 hours post-injection. At 1 hour post HyT13 administration the blood serum concentration was approximately 2 μM, and by 24 hours the HyT13 concentration had dropped to about 500 nM (FIG. 10). Based on our previous experiments in a cell culture setting, we speculated that these serum HyT13 concentrations would be sufficient to suppress H-RasG12V tumor formation in mice. To test this, we injected NIH-3T3 cells expressing HA-HaloTag-H-RasG12V into the flank of nude mice and on the same day started a daily treatment regimen of vehicle, 25 mg/kg HyT13 or 100 mg/kg HyT13. […]

The next data set deals with T1, HA-HaloTag-Smad5 (Rhodococcus rhodochrous, UniProt P0A3G2, C176G/H272F/K175M/Y273L).
T1 construct: The HaloTag protein was obtained from pHT2 vector (Promega); Danio rerio Smad5 (fusion partner); expressed in transfected cells; host or cells: zebrafish (TLF line) embryos injected with in vitro transcribed cRNA at the one-cell stage
The experiment in a line: Zebrafish embryo HA-HaloTag-Smad5 degradation (immunoblot). To be noted: 10 μM, 24 hours. The class given is in vivo, Danio rerio. The procedure: The wild-type fish line TLF was used for this study. The HA-HaloTag-Smad5 in pCS2+ plasmid was in vitro transcribed with the SP6 transcription kit (Ambion). The mRNA was injected at 100 ng/μL at the one cell stage and embryos were raised to the 256-cell stage, when they were moved to glass depression slides (10-per-well) and put in 1 ml E2 media with or without HyT13 (10 μM). Embryos were cultured at 28.6° C. for 24 hours and then dechorionated and de-yolked as described^43. Approximately 60 embryos per condition were collected for immunoblot analysis, as described above.
We also explored the possibility of employing the hydrophobic tagging system in the zebrafish Danio rerio. We injected HA-HaloTag-Smad5 cRNA into zebrafish embryos and then treated the embryos with either vehicle or HyT13.

As for `O=C(CC12CC3CC(CC(C3)C1)C2)NCCOCCOCCCCCCCl` [HyT13, 2-((3r,5r,7r)-Adamantan-1-yl)-N-(2-(2-((6-chlorohexyl)oxy)ethoxy)ethyl)acetamide], in data set [1], the “degradation of transmembrane HaloTag fusion proteins” value was “efficiently induced their degradation”. Besides, the weight gain entry in data set [2] (mice injected daily at 100 mg/kg for 14 days) is reported as “gained weight normally”. Further, in data set [2] (nude mice, daily IP, doses up to 100 mg/kg, 14 days), the “toxicity / phenotype in mice” value is listed as “No obvious phenotype was observed; also recorded: no observed toxicity”. Moreover, at HA-HaloTag-Smad5, the “degradation of fusion protein in zebrafish embryos” value is on record as “very efficiently degraded”.
